# Reference: patent publication US9695155B2, “Herbicidal substituted pyrimidinyloxy benzene compounds” (E. I. DU PONT DE NEMOURS AND COMPANY, priority 2013, dated 2017)
# What was measured:
# barnyardgrass [1] = experiment: Test A preemergence; assay type: in vivo, Echinochloa crus-galli; details: for Plant response rating, Barnyardgrass: 0 to 100 scale where 0 is no effect and 100 is complete control
# Procedure, shortened: (§1)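 Scoring: eye-based comparison with untreated controls, 0 for no effect through 100 for complete control, at about day 10. Treatments: directed soil spray preemergence; foliar spray postemergence on 2–10 cm plants at the one- to two-leaf stage. Medium: loam soil with sand.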
# kochia [2] = experiment: Test A preemergence; assay type: in vivo, Kochia scoparia; details: for Plant response rating, Kochia: 0 to 100 scale where 0 is no effect and 100 is complete control
# Procedure, shortened: as §1
# ragweed [3] = experiment: Test A preemergence; assay type: in vivo, Ambrosia elatior; details: for Plant response rating, Ragweed: 0 to 100 scale where 0 is no effect and 100 is complete control
# Procedure, shortened: as §1
# Italian ryegrass [4] = experiment: Test A preemergence; assay type: in vivo, Lolium multiflorum; details: for Plant response rating, Ryegrass, Italian: 0 to 100 scale where 0 is no effect and 100 is complete control
# Procedure, shortened: as §1
# giant foxtail [5] = experiment: Test A preemergence; assay type: in vivo, Setaria faberii; details: for Plant response rating, Foxtail, Giant: 0 to 100 scale where 0 is no effect and 100 is complete control
# Procedure, shortened: as §1
# pigweed [6] = experiment: Test A preemergence; assay type: in vivo, Amaranthus retroflexus; details: for Plant response rating, Pigweed: 0 to 100 scale where 0 is no effect and 100 is complete control
# Procedure, shortened: as §1
# barnyardgrass [7] = experiment: Test A postemergence; assay type: in vivo, Echinochloa crus-galli
# Procedure, shortened: as §1
# kochia [8] = experiment: Test A postemergence; assay type: in vivo, Kochia scoparia
# Procedure, shortened: as §1
# ragweed [9] = experiment: Test A postemergence; assay type: in vivo, Ambrosia elatior; details: 0 to 100 scale, 0 no effect, 100 complete control
# Procedure, shortened: as §1
# Italian ryegrass [10] = experiment: Test A postemergence; assay type: in vivo, Lolium multiflorum; details: 0 to 100 scale, 0 no effect, 100 complete control
# Procedure, shortened: as §1
# giant foxtail [11] = experiment: Test A postemergence; assay type: in vivo, Setaria faberii
# Procedure, shortened: as §1
# pigweed [12] = experiment: Test A postemergence; assay type: in vivo, Amaranthus retroflexus; details: 0 to 100 scale, 0 no effect, 100 complete control
# Procedure, shortened: as §1
# wheat = experiment: Test A postemergence; assay type: in vivo, Triticum aestivum; details: 0 to 100 scale, 0 no effect, 100 complete control
# Procedure, shortened: as §1
# corn = experiment: Test A postemergence; assay type: in vivo, Zea mays
# Procedure, shortened: as §1
# blackgrass = experiment: Test A postemergence; assay type: in vivo, Alopecurus myosuroides
# Procedure, shortened: as §1
# galium = experiment: Test A postemergence; assay type: in vivo, Galium aparine
# Procedure, shortened: as §1
# rice = experiment: Test B flooded paddy test; assay type: in vivo, Oryza sativa; details: Flood, 250 g ai/ha; 0 to 100 scale where 0 is no effect and 100 is complete control
# Procedure, shortened: (§2)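 Post-emergence paddy-water application at the 2-leaf stage, with 3 cm flood kept for the whole test. Response was judged visually relative to controls after 13 to 15 greenhouse days, 0 indicating no effect and 100 complete control.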
# sedge, umbrella = experiment: Test B flooded paddy test; assay type: in vivo, Cyperus difformis; details: Flood, 250 g ai/ha; 0 to 100 scale where 0 is no effect and 100 is complete control
# Procedure, shortened: as §2
# Heteranthera limosa = experiment: Test B flooded paddy test; assay type: in vivo; details: Flood, 250 g ai/ha; 0 to 100 scale where 0 is no effect and 100 is complete control
# Procedure, shortened: as §2
# barnyardgrass [13] = experiment: Test B flooded paddy test; assay type: in vivo, Echinochloa crus-galli; details: Flood, 250 g ai/ha; 0 to 100 scale where 0 is no effect and 100 is complete control
# Procedure, shortened: as §2
# [14] = 31 g ai/ha, 0 to 100 scale, 0 no effect, 100 complete control
# [15] = 125 g ai/ha, 0 to 100 scale where 0 is no effect and 100 is complete control
# [16] = 31 g ai/ha, visual, approximately 10 days
# [17] = 125 g ai/ha, 0 to 100 scale, 0 no effect, 100 complete control
smiles,measurement,setting,value
Fc1cnc(Oc2cccc(Cl)c2-n2cc(OCC(F)(F)F)cn2)nc1 [Compound 109],Barnyardgrass plant response rating (0 to 100 scale),barnyardgrass [1]; 31 g ai/ha,20
same,"Plant response rating, Barnyardgrass",barnyardgrass [1]; 125 g ai/ha,60
same,Kochia plant response rating (0 to 100 scale),kochia [2]; 31 g ai/ha,20
same,"Plant response rating, Kochia",kochia [2]; 125 g ai/ha,60
same,Ragweed plant response rating (0 to 100 scale),ragweed [3]; 31 g ai/ha,0
same,"Plant response rating, Ragweed",ragweed [3]; 125 g ai/ha,10
same,"Ryegrass, Italian plant response rating (0 to 100 scale)",Italian ryegrass [4]; 31 g ai/ha,0
same,"Plant response rating, Ryegrass, Italian",Italian ryegrass [4]; 125 g ai/ha,0
same,"Foxtail, Giant plant response rating (0 to 100 scale)",giant foxtail [5]; 31 g ai/ha,70
same,"Plant response rating, Foxtail, Giant",giant foxtail [5]; 125 g ai/ha,90
same,Pigweed plant response rating (0 to 100 scale),pigweed [6]; 31 g ai/ha,100
same,"Plant response rating, Pigweed",pigweed [6]; 125 g ai/ha,100
same,"Plant response rating, Barnyardgrass",barnyardgrass [7]; [14],10
same,"Plant response rating, Barnyardgrass",barnyardgrass [7]; [15],60
same,"Plant response rating, Kochia",kochia [8]; [14],40
same,"Plant response rating, Kochia",kochia [8]; [15],60
same,"Plant response rating, Ragweed",ragweed [9]; 31 g ai/ha,10
same,"Plant response rating, Ryegrass, Italian",Italian ryegrass [10]; 31 g ai/ha,0
same,"Plant response rating, Foxtail, Giant",giant foxtail [11]; [14],10
same,"Plant response rating, Foxtail, Giant",giant foxtail [11]; [15],70
same,"Plant response rating, Pigweed",pigweed [12]; 31 g ai/ha,70
same,"Plant response rating, Wheat",wheat; 31 g ai/ha,0
same,"Plant response rating, Corn",corn; [14],10
same,"Plant response rating, Corn",corn; [15],40
same,"Plant response rating, Blackgrass",blackgrass; [14],20
same,"Plant response rating, Blackgrass",blackgrass; [15],70
same,"Plant response rating, Galium",galium; [14],50
same,"Plant response rating, Galium",galium; [15],90
same,"Plant response rating, Rice",rice,0
same,"Plant response rating, Sedge, Umbrella","sedge, umbrella",85
same,"Plant response rating, Ducksalad",Heteranthera limosa,80
same,"Plant response rating, Barnyardgrass",barnyardgrass [13],0
FC(F)c1cccc(Oc2ncc(Cl)cn2)c1-n1cncc1Br [Compound 259],"Plant response rating, Barnyardgrass",barnyardgrass [1]; [16],10
same,"Barnyardgrass plant response rating (0 to 100 scale, 0 is no effect, 100 is complete control)",barnyardgrass [1]; 125 g ai/ha,70
same,"Plant response rating, Kochia",kochia [2]; [16],20
same,Kochia plant response rating (0 to 100 scale),kochia [2]; 125 g ai/ha,80
same,"Plant response rating, Ragweed",ragweed [3]; [16],10
same,Ragweed plant response rating (0 to 100 scale),ragweed [3]; 125 g ai/ha,70
same,"Plant response rating, Ryegrass, Italian",Italian ryegrass [4]; [16],0
same,"Ryegrass, Italian plant response rating (0 to 100 scale)",Italian ryegrass [4]; 125 g ai/ha,0
same,"Plant response rating, Foxtail, Giant",giant foxtail [5]; [16],30
same,"Foxtail, Giant plant response rating (0 to 100 scale)",giant foxtail [5]; 125 g ai/ha,100
same,"Plant response rating, Pigweed",pigweed [6]; [16],70
same,Pigweed plant response rating (0 to 100 scale),pigweed [6]; 125 g ai/ha,100
same,"Plant response rating, Barnyardgrass",barnyardgrass [7]; [14],0
same,"Plant response rating, Barnyardgrass",barnyardgrass [7]; [17],30
same,"Plant response rating, Kochia",kochia [8]; [14],60
same,"Plant response rating, Kochia",kochia [8]; [17],80
same,"Plant response rating, Ragweed",ragweed [9]; 31 g ai/ha,50
same,"Plant response rating, Ragweed",ragweed [9]; 125 g ai/ha,70
same,"Plant response rating, Ryegrass, Italian",Italian ryegrass [10]; 31 g ai/ha,0
same,"Plant response rating, Ryegrass, Italian",Italian ryegrass [10]; 125 g ai/ha,10
same,"Plant response rating, Foxtail, Giant",giant foxtail [11]; [14],10
same,"Plant response rating, Foxtail, Giant",giant foxtail [11]; [17],40
same,"Plant response rating, Pigweed",pigweed [12]; 31 g ai/ha,70
same,"Plant response rating, Pigweed",pigweed [12]; 125 g ai/ha,90
same,"Plant response rating, Wheat",wheat; 31 g ai/ha,0
same,"Plant response rating, Wheat",wheat; 125 g ai/ha,0
same,"Plant response rating, Corn",corn; [14],0
same,"Plant response rating, Corn",corn; [17],10
same,"Plant response rating, Blackgrass",blackgrass; [14],20
same,"Plant response rating, Blackgrass",blackgrass; [17],50
same,"Plant response rating, Galium",galium; [14],70
same,"Plant response rating, Galium",galium; [17],80
same,"Plant response rating, Rice",rice,0
same,"Plant response rating, Sedge, Umbrella","sedge, umbrella",75
same,"Plant response rating, Ducksalad",Heteranthera limosa,70
same,"Plant response rating, Barnyardgrass",barnyardgrass [13],0
